Experimental data published in PubChem BioAssay AID248 (DTP/NCI, 2004).
Values joined by “and” are separate entries in the source; they are usually repeats but may differ in a detail not shown here. Equal entries are not always repeated. Toxic doses and inconclusive results are not listed. No stated cut-off is given here; in the data, active means T/C of 150% or more; inactive means T/C below 125%.

System: L1210 leukemia ip in BDF1 mice, survival T/C
Test: NCI In Vivo Anticancer Drug Screen. Data for tumor model L1210 Leukemia (intraperitoneal) in B6D2F1 (BDF1) mice
Conditions: endpoint: mean survival time, higher = longer survival
How it was run: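 In this screen, tumor-bearing mice given compound are compared to those given vehicle, and their survival values are reported as a treated-to-control quotient.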

[1] = dose: 100.0 mg/kg/injection, schedule: Q01DX009 (ip), vehicle: Klucel (hydroxypropylcellulose) (HPC)
[2] = dose: 100.0 mg/kg/injection, schedule: Q04DX003 (ip), vehicle: Klucel (hydroxypropylcellulose) (HPC)
[3] = dose: 200.0 mg/kg/injection, schedule: Q04DX003 (ip), vehicle: Klucel (hydroxypropylcellulose) (HPC)
[4] = dose: 200.0 mg/kg/injection, schedule: Q01DX009 (ip), vehicle: Klucel (hydroxypropylcellulose) (HPC)
[5] = dose: 400.0 mg/kg/injection, schedule: Q01DX009 (ip), vehicle: Klucel (hydroxypropylcellulose) (HPC)
[6] = dose: 400.0 mg/kg/injection, schedule: Q04DX003 (ip), vehicle: Klucel (hydroxypropylcellulose) (HPC)
[7] = dose: 100.0 mg/kg/injection, schedule: Q04DX003 (ip), vehicle: saline
[8] = dose: 200.0 mg/kg/injection, schedule: Q04DX003 (ip), vehicle: saline
[9] = dose: 400.0 mg/kg/injection, schedule: Q04DX003 (ip), vehicle: saline
[10] = dose: 50.0 mg/kg/injection, schedule: Q01DX001 (ip), vehicle: carboxymethylcellulose (CMC)
[11] = dose: 100.0 mg/kg/injection, schedule: Q01DX001 (ip), vehicle: carboxymethylcellulose (CMC)
[12] = dose: 200.0 mg/kg/injection, schedule: Q01DX001 (ip), vehicle: carboxymethylcellulose (CMC)
[13] = dose: 100.0 mg/kg/injection, schedule: Q01DX009 (ip), vehicle: gum acacia

Measured: T/C

CCOC(=O)NCCCCCCNC(=O)OCC
inactive: dose: 50.0 mg/kg/injection, schedule: Q01DX009 (ip), vehicle: saline with Tween-80 97 % of control | dose: 100.0 mg/kg/injection, schedule: Q01DX009 (ip), vehicle: saline with Tween-80 95 % of control | dose: 200.0 mg/kg/injection, schedule: Q01DX009 (ip), vehicle: saline with Tween-80 95 % of control

CCCC(OC(C)=O)C(Cl)(Cl)Cl (centres undefined)
inactive: dose: 50.0 mg/kg/injection, schedule: Q01DX009 (ip), vehicle: Klucel (hydroxypropylcellulose) (HPC) 103 % of control | [1] 107 % of control | [2] 97 % of control | [3] 97 % of control

Nc1ccc(CCc2ccc(N)cc2[N+](=O)[O-])c([N+](=O)[O-])c1
inactive: [1] 101 % of control | [2] 96 % of control | [4] 101 % of control | [3] 109 % of control | [5] 92 % of control | [6] 90 % of control

c1ccc2cc3nc4c(nc3cc2c1)[nH]c1ccccc14
inactive: dose: 100.0 mg/kg/injection, schedule: Q01DX001 (ip), vehicle: other 87 % of control | dose: 200.0 mg/kg/injection, schedule: Q01DX001 (ip), vehicle: other 95 % of control | dose: 400.0 mg/kg/injection, schedule: Q01DX001 (ip), vehicle: other 95 % of control

CC(C)(CSCCSCC(C)(C)C(=O)O)C(=O)O
inactive: [1] 94 % of control | [4] 94 % of control | [5] 91 % of control

CC1(C)CC(C(=O)c2ccccc2)C(=O)c2ccccc21 (centres undefined)
inactive: dose: 100.0 mg/kg/injection, schedule: Q01DX001 (ip), vehicle: Klucel (hydroxypropylcellulose) (HPC) 105 % of control | dose: 200.0 mg/kg/injection, schedule: Q01DX001 (ip), vehicle: Klucel (hydroxypropylcellulose) (HPC) 97 % of control | dose: 400.0 mg/kg/injection, schedule: Q01DX001 (ip), vehicle: Klucel (hydroxypropylcellulose) (HPC) 86 % of control

N=c1cc(-c2ccc(Cl)cc2)ss1
inactive: dose: 50.0 mg/kg/injection, schedule: Q01DX009 (ip), vehicle: saline 91 % of control | dose: 100.0 mg/kg/injection, schedule: Q01DX009 (ip), vehicle: saline 97 % of control | [7] 100 % of control | dose: 200.0 mg/kg/injection, schedule: Q01DX009 (ip), vehicle: saline 91 % of control | [8] 92 % of control

N#CCC[CH2][Sn]([Br])([Br])[c]1ccccc1
inactive: dose: 3.12 mg/kg/injection, schedule: Q04DX003 (ip), vehicle: saline 91 % of control | dose: 6.25 mg/kg/injection, schedule: Q04DX003 (ip), vehicle: saline 96 % of control | dose: 12.5 mg/kg/injection, schedule: Q04DX003 (ip), vehicle: saline 91 % of control

CC(=O)OC1C(OC(C)=O)C2C(C)(C)CCCC2(C)C2Cc3occc3C(C)C12 (centres undefined)
inactive: [7] 120 % of control | [8] 117 % of control | [9] 103 % of control

C=C1C=C(C)N(C(=O)c2ccc(Cl)cc2)CCN1C(=O)c1ccc(Cl)cc1
inactive: [1] 100 % of control | [4] 90 % of control | [5] 92 % of control

CN(N=O)c1ccc(/C=C2\C=Cc3ccccc32)cc1
inactive: [10] 96 % of control | [11] 93 % of control | [12] 96 % of control | dose: 400.0 mg/kg/injection, schedule: Q01DX001 (ip), vehicle: carboxymethylcellulose (CMC) 98 % of control

Cc1cc(O)c2cc3c(O)c(O)ccc3cc2c1
inactive: dose: 0.5 mg/kg/injection, schedule: Q01DX015 (ip), vehicle: saline 94 % of control | dose: 1.0 mg/kg/injection, schedule: Q01DX015 (ip), vehicle: saline 96 % of control | dose: 2.0 mg/kg/injection, schedule: Q01DX015 (ip), vehicle: saline 96 % of control | dose: 4.0 mg/kg/injection, schedule: Q01DX015 (ip), vehicle: saline 100 % of control and 109 % of control | dose: 5.0 mg/kg/injection, schedule: Q01DX001 (ip), vehicle: saline 112 % of control | dose: 6.2 mg/kg/injection, schedule: Q01DX001 (ip), vehicle: carboxymethylcellulose (CMC) 108 % of control | dose: 8.0 mg/kg/injection, schedule: Q01DX015 (ip), vehicle: saline 103 % of control | dose: 10.0 mg/kg/injection, schedule: Q01DX001 (ip), vehicle: saline 115 % of control | dose: 12.5 mg/kg/injection, schedule: Q01DX001 (ip), vehicle: carboxymethylcellulose (CMC) 104 % of control | dose: 25.0 mg/kg/injection, schedule: Q01DX001 (ip), vehicle: carboxymethylcellulose (CMC) 110 % of control

NNc1ccc(S(=O)(=O)C(F)(F)C(F)Cl)cc1 (centres undefined)
inactive: [13] 105 % of control | dose: 100.0 mg/kg/injection, schedule: Q04DX003 (ip), vehicle: gum acacia 101 % of control | dose: 200.0 mg/kg/injection, schedule: Q01DX009 (ip), vehicle: gum acacia 100 % of control | dose: 200.0 mg/kg/injection, schedule: Q04DX003 (ip), vehicle: gum acacia 96 % of control | dose: 400.0 mg/kg/injection, schedule: Q04DX003 (ip), vehicle: gum acacia 96 % of control

CCCCCCCCNc1cc2c3c(c1)CCCN3CCC2
inactive: dose: 0.78 mg/kg/injection, schedule: Q01DX009 (ip), vehicle: alcohol 110 % of control | dose: 1.56 mg/kg/injection, schedule: Q01DX009 (ip), vehicle: alcohol 102 % of control | dose: 1.56 mg/kg/injection, schedule: Q04DX003 (ip), vehicle: alcohol 102 % of control | dose: 3.12 mg/kg/injection, schedule: Q01DX009 (ip), vehicle: alcohol 113 % of control | dose: 3.12 mg/kg/injection, schedule: Q04DX003 (ip), vehicle: alcohol 108 % of control | dose: 6.25 mg/kg/injection, schedule: Q04DX003 (ip), vehicle: alcohol 97 % of control | dose: 25.0 mg/kg/injection, schedule: Q04DX003 (ip), vehicle: alcohol 88 % of control

O=c1cc(CS)[nH]c(=O)[nH]1
inactive: [7] 98 % of control | [8] 101 % of control | [9] 98 % of control

Nc1ncnc2c(C3OC(CO)C(O)C3O)[nH]nc12 (centres undefined)
inactive: dose: 5.0 mg/kg/injection, schedule: Q01DX015 (ip), vehicle: carboxymethylcellulose (CMC) 95 % of control | dose: 10.0 mg/kg/injection, schedule: Q01DX015 (ip), vehicle: carboxymethylcellulose (CMC) 109 % of control | dose: 12.5 mg/kg/injection, schedule: Q01DX009 (ip), vehicle: saline with Tween-80 119 % of control | dose: 20.0 mg/kg/injection, schedule: Q01DX015 (ip), vehicle: carboxymethylcellulose (CMC) 111 % of control | dose: 25.0 mg/kg/injection, schedule: Q01DX009 (ip), vehicle: saline with Tween-80 98 % of control | [10] 109 % of control | [11] 111 % of control | dose: 100.0 mg/kg/injection, schedule: Q01DX001 (ip), vehicle: saline 108 % of control | dose: 100.0 mg/kg/injection, schedule: Q04DX003 (ip), vehicle: saline with Tween-80 114 % of control | dose: 133.0 mg/kg/injection, schedule: Q04DX003 (ip), vehicle: saline with Tween-80 100 % of control and 117 % of control | [12] 115 % of control | dose: 200.0 mg/kg/injection, schedule: Q04DX003 (ip), vehicle: saline with Tween-80 111 % of control | dose: 300.0 mg/kg/injection, schedule: Q04DX003 (ip), vehicle: saline with Tween-80 88 % of control

CC(=O)Nc1ccc(OCCCOc2ccc([N+](=O)[O-])cc2)cc1
inactive: [2] 101 % of control | [3] 95 % of control | [6] 91 % of control

O=C(NC(=S)Nc1ccc(F)cc1)c1ccccc1F
inactive: dose: 25.0 mg/kg/injection, schedule: Q01DX009 (ip), vehicle: gum acacia 104 % of control | dose: 50.0 mg/kg/injection, schedule: Q01DX009 (ip), vehicle: gum acacia 107 % of control | [13] 96 % of control and 105 % of control
